Results on 1 compound are retold here after PMC9572521, “Synthesis, Docking Studies and Pharmacological Evaluation of Serotoninergic Ligands Containing a 5-Norbornene-2-Carboxamide Nucleus” (Molecules, 2022).

Structures are written as SMILES. “Also recorded” adds a separate entry of the source.

The target of one data set is T1, 5-HT1A receptor (Rattus norvegicus, UniProt P19327).
T1 construct: 15 μg/mL of hippocampus homogenate was incubated in triplicate with 0.8 nM; from tissue; host or cells: rat hippocampus homogenate
T1 sequence (P19327 1-422): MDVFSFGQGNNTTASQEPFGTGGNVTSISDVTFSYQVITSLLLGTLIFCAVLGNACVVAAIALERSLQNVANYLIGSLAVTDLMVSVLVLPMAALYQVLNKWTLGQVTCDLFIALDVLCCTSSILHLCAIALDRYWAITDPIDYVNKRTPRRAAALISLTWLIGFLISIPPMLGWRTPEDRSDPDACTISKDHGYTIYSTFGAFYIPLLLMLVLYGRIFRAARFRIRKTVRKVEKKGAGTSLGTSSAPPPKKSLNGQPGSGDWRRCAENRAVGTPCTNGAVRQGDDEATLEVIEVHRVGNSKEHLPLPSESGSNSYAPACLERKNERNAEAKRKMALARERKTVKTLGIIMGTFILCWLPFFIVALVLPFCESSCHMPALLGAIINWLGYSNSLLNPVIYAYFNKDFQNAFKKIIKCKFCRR
Put plainly: Functional 5-HT1A receptor [35S]GTPγS assay (agonist mode).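 Also: male Sprague-Dawley rat hippocampal membranes incubated 90 min at 37 °C, bound label counted by scintillation after filtration, non-specific binding defined with 100 µM unlabeled GTPγS, one-site curve fit.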 The class given is biochemical. To be noted: [35S]GTPγS, rat hippocampus homogenate. In general terms: GTPγS resists hydrolysis and so accumulates on activated G proteins.

For data set [1], the system named is mice. The data set is described as follows: Rota-rod test (motor coordination). To be noted: 30 mg/kg i.p., 60 min before the test. It is filed as in vivo, mouse. How it is done: The experiments were carried out, in the Experimental Medicine Center of Medical University of Lublin, on six-week-old naive male Swiss mice, weighing 24–30 g. The mice were housed in cages, five individuals per cage in an environmentally controlled rooms (ambient temperature 22 ± 1 °C; relative humidity 50–60%; 12 h light/dark cycle, lights on at 8:00). Standard laboratory food(LSM-Agropol-Motycz, Lublin, Poland) and filtered water were available ad libitum. All the experimental procedures were carried out, according to the National Institute of Health Guidelines for the Care and Use of Laboratory Animals and to the European Community Council Directive for the Care and Use of Laboratory Animals of 22 September 2010 (2010/63/EU) and approved by the Local Ethics Committee for Animal Experimentation in Lublin. The investigated compounds (Norbo-4, Norbo-8, Norbo-10, Norbo-14, Norbo-18 and Norbo-20) in all tests were administered intraperitoneally (i.p.), dissolved in dimethyl sulfoxide (DMSO, final concentration of 0.1%) and then diluted by aqueous solution of 0.5% methylcellulose (tylose) and injected 60 min before the tests. […] All compounds were given in a volume of 10 mL/kg to mice. The control animals received an equivalent volume of the solvent at the respective time before the tests. All the experiments were conducted in the light phase between 09.00 a.m. and 14.00 p.m. The experiments were performed by an observer unaware of the treatment administered. The effects of investigated compounds on motor coordination were evaluated in the rota-rod and chimney tests. In the first test, motor impairments were measured, defined as the inability to keep balance on a rotating rod (at constant speed of 18 rpm) for 1 min. In the second test, motor impairments were assessed by mouse inability to climb up the tube backwards (3 cm in inner diameter, 25 cm long) within 60 s. Before the tests, the animals were trained once a day for 3 days. The animals able to stay on the rotating rod or to leave the chimney for 60 s were approved for experiments.
In general terms: In the rotarod test animals must keep their balance on a rotating rod.

The subject of data set [2] is mice. Put plainly: Spontaneous locomotor activity. It is filed as in vivo, mouse.
The test system of data set [3] is mice. The data set is described as follows: Elevated plus-maze test (EPM). It is filed as in vivo, mouse. To be noted: 60 min before the test. How it is done:
The experiments were carried out, in the Experimental Medicine Center of Medical University of Lublin, on six-week-old naive male Swiss mice, weighing 24–30 g. The mice were housed in cages, five individuals per cage in an environmentally controlled rooms (ambient temperature 22 ± 1 °C; relative humidity 50–60%; 12 h light/dark cycle, lights on at 8:00). Standard laboratory food(LSM-Agropol-Motycz, Lublin, Poland) and filtered water were available ad libitum. All the experimental procedures were carried out, according to the National Institute of Health Guidelines for the Care and Use of Laboratory Animals and to the European Community Council Directive for the Care and Use of Laboratory Animals of 22 September 2010 (2010/63/EU) and approved by the Local Ethics Committee for Animal Experimentation in Lublin. The investigated compounds (Norbo-4, Norbo-8, Norbo-10, Norbo-14, Norbo-18 and Norbo-20) in all tests were administered intraperitoneally (i.p.), dissolved in dimethyl sulfoxide (DMSO, final concentration of 0.1%) and then diluted by aqueous solution of 0.5% methylcellulose (tylose) and injected 60 min before the tests. […] All compounds were given in a volume of 10 mL/kg to mice. The control animals received an equivalent volume of the solvent at the respective time before the tests. All the experiments were conducted in the light phase between 09.00 a.m. and 14.00 p.m. The experiments were performed by an observer unaware of the treatment administered. The EPM studies were carried out on mice according to the method of Lister. The EPM apparatus was made of plexiglass and consisted of two open (30 × 5 cm) and two enclosed (30 × 5 × 15 cm) arms. The arms extended from a central platform of 5 × 5 cm. The apparatus was mounted on a plexiglass base, raising it 38.5 cm above the floor, and illuminated by a red light. The test consisted of placing a mouse in the center of the apparatus (facing an open arm) and allowing it to freely explore. The number of entries into the open arms and the time spent in these arms were scored for a 5 min test period. An entry was defined as placing all four paws within the boundaries of the arm. The following measures were obtained from the test: the total number of arm entries; the percentage of arm entries into the open arms; and the time spent in the open arms expressed as a percentage of the time spent in both the open and closed arms. Anxiolytic activity was indicated by increases in the time spent in open arms and in the number of open arm entries. The total number of entries into either type of arm was used additionally as a measure of overall motor activity.

Consider `Cc1cccc(N2CCN(CCCNC(=O)C3CC4C=CC3C4)CC2)c1C` (stereo not drawn) [Norbo-4, endo-N-(3-(4-(2,3-dimethylphenyl)piperazin-1-yl)propyl)bicyclo[2.2.1]hept-5-ene-2-carboxamide], for which the “5-HT1A Receptor G-Protein Stimulation Emax (%) ± SEM” value at 5-HT1A receptor is on record as 181 ± 2.4 %. Moreover, on 5-HT1A receptor (read-out: 5-HT1A Receptor G-Protein Stimulation EC50 (95% CI)), the EC50 – broadly, the concentration giving half of the maximal effect – was found to be 181 nM. Besides, the time on rota-rod result in the data set with mice [1] is “decreased also time on rota-rod; also recorded: impaired motor coordination”. Also, the spontaneous locomotor activity entry in the data set with mice [2] (15 mg/kg i.p., after 6 min of observation) is given as “significant decrease in locomotor activity; also recorded: induced the same effect”; with mice [2] (15 mg/kg i.p., after 20 min of observation), “significant decrease in locomotor activity; also recorded: induced the same effect”; in the data set on mice [2] (30 mg/kg i.p., after 6 min of observation), “significant decrease in locomotor activity”; in the data set on mice [2] (30 mg/kg i.p., after 20 min of observation) it was “significant decrease in locomotor activity”. The “percentage of time spent in open arms (EPM)” value in the data set on mice [3] (3.75 mg/kg i.p.) and in the data set with mice [3] (15 mg/kg i.p.) was “significant increase in time spent in open arms; also recorded: increased the percentage of open arm exploration time” in each case. Moreover, the “percentage of the open arm entries (EPM)” value in the data set with mice [3] (15 mg/kg i.p.) is “increase the percentage of open arm entries”.
